“Also recorded” adds a separate entry of the source. Marks after values point to notes of the source that are not given here.
Key:
[1] = molecular target: phospholipase A2 (PLA2); assay: Assay for inhibition against PLA2; type: biochemical; conditions: PLA2 enzyme 5 μg/mL, pH 8.2, 40 °C, 30 min, OD 495 nm; three repeats
Procedure: As a regulator associated with the stability of the liver cell membrane, phospholipase A2 (PLA2) is a promising target for hepatoprotective drug development.
The PLA2 inhibitory assays of compounds 1–11 and the positive drug diethylenetriaminepentaacetic acid (Purchased from Aladdin, Los Angeles, CA, USA, purity > 98.0%) were carried out according to the literature. First of all, each tube was added with 1 mL fresh substrate buffer solution (pH = 8.2). After that, 50 μL tested compounds at various concentrations were placed at reaction tube and blank tube, respectively. As for control tube, 50 μL deionized water was instead. Then each tube incubated at 40 °C for 10 minutes. The reaction tube and blank tube were followed by the treatment with PLA2 enzyme (5 μL) at the concentration of 5 μg/mL. Before put them into the incubator at the temperature of 40 °C to react 30 minutes, the content of the tube should be fully blending. The optical density value of each tube was then read in an ELISA plate reader using a wavelength of 495 nm. The IC50 values were calculated from concentration-response curves by means of the GraphPad Prism 5.0 Software (San Diego, CA, USA). Each experiment was repeated three times to get the mean values.

[2] = tested on: primary rat hepatocytes injured by D-GalN; assay: Hepatoprotective activity in primary rat hepatocytes injured by D-GalN (AST, LDH levels); type: cell-based; conditions: for AST / LDH: primary rat hepatocytes, 2 mM D-GalN, mean ± SD, n = 3; for AST: model 17.1 ± 2.4, control 6.9 ± 1.7; for LDH: model 253.5 ± 13.5, control 157.4 ± 11.7; for hepatoprotective activity (result in words): primary rat hepatocytes injured by D-GalN, compared to model group or between compounds
Procedure: All the separated compounds were assessed for their hepatoprotective activities against the increase of AST and LDH levels in primary rat hepatocytes injured by D-GalN. The maximum nontoxic concentrations of tested compounds on primary rat hepatocytes were in the range of 120–240 μM. […] (Table 2).
Isolated rat hepatocytes were prepared from male Wistar rats by a collagenase perfusion technique as described previously. The D-GalN concentration used for cell culture treatment was previously determined according to a modification of the method of Morikawa et al.. The cultured cells in logarithmic growth phase were made into a single-cell suspension and seeded in 96-well plates (1 × 10^4 cells/well) in the DMEM/F 12 with 2% FBS complete medium for 24 h at 37 °C. Then, the hepatocytes were exposed to 2 mM D-GalN for 2 h to induce hepatotoxocity. The medium with silibin meglumine (as positive drug, purity 95.6%, Hunan Xieli Pharmaceutical Co., Ltd., Zhuzhou, China) and different concentrations of test compounds was mixed in cell medium (final test compounds concentration were 30 μM, 60 μM and 120 μM, respectively), and incubated for 24 h. The obtained reacted supernatant was directly used to detect ALT and AST levels. The control group was a set of cells maintained in culture medium, while the model group was a set of cells maintained in culture medium and treated only with D-GalN. All data are expressed as the mean ± SD of at least three independent experiments as indicated. The test for the paired samples was used to determine statistical difference between parameters. These differences were considered significant for p < 0.05 or 0.01.

## CC12CCC(CO)(C(=O)O)CC1C1=CC(=O)C3C4(C)CCC(OC5OC(C(=O)O)C(O)C(O)C5OC5OC(C(=O)O)C(O)C(O)C5O)C(C)(C)C4CCC3(C)C1(C)CC2 [Compound 1, 3β-O-[β-D-glucuronopyranosyl-(1→2)-β-D-glucuronopyranosyl]-29-hydroxyglycyrrhetic acid]
[1]
  IC50: > 50 µM

## CC12CCC3(C)C(=CC(=O)C4C5(C)CCC(OC6OC(C(=O)O)C(O)C(O)C6OC6OC(C(=O)O)C(O)C(O)C6O)C(C)(C)C5CCC43C)C1CC(C)(C(=O)O)C(O)C2 (stereo not drawn) [Compound 2, macedonoside A]
[1]
  IC50: 6.9 ± 0.5 µM
[2]; 30 μM compound
  AST: 14.6 ± 3.1 U·L^−1
  LDH: 231.0 ± 18.3 ^c U·L^−1
[2]; 60 μM compound
  AST: 13.1 ± 2.1 ^c U·L^−1
  LDH: 213.7 ± 19.6 ^d U·L^−1
[2]; 120 μM compound
  AST: 11.2 ± 1.9 ^d U·L^−1
  LDH: 215.9 ± 8.2 ^d U·L^−1
[2]
  hepatoprotective activity (result in words): notably lowered AST; also recorded: significant hepatoprotective activities

## CC1(C(=O)O)CCC2(C)CCC3(C)C(=CC(=O)C4C5(C)CCC(OC6OC(C(=O)O)C(O)C(O)C6OC6OC(C(=O)O)C(O)C(O)C6O)C(C)(CO)C5CCC43C)C2C1 [Compound 3, 3β-O-[β-D-glucuronpyranosyl-(1→2)-β-D-glucuron-pyranosyl]-24-hydroxy-18α-glycyrrhetic acid]
[1]
  IC50: 3.6 ± 0.3 µM
[2]; 30 μM compound
  AST: 13.3 ± 2.9 ^c U·L^−1
  LDH: 224.6 ± 21.4 ^c U·L^−1
[2]; 60 μM compound
  AST: 12.9 ± 3.2 ^d U·L^−1
  LDH: 208.6 ± 16.0 ^d U·L^−1
[2]; 120 μM compound
  AST: 10.8 ± 2.8 ^d U·L^−1
  LDH: 200.7 ± 15.1 ^d U·L^−1
[2]
  hepatoprotective activity (result in words): notably lowered AST; also recorded: higher activity than compound 4; also recorded: significant hepatoprotective activities

## CC1(C(=O)O)CCC2(C)CCC3(C)C(=CC(=O)C4C5(C)CCC(OC6OC(C(=O)O)C(O)C(O)C6OC6OC(C(=O)O)C(O)C(O)C6O)C(C)(CO)C5CCC43C)C2C1 (stereo not drawn) [Compound 4, licorice-saponin G2]
[1]
  IC50: 16.9 ± 0.3 µM
[2]; 30 μM compound
  AST: 14.8 ± 2.9 U·L^−1
  LDH: 237.2 ± 16.4 U·L^−1
[2]; 60 μM compound
  AST: 13.7 ± 2.6 ^c U·L^−1
  LDH: 232.7 ± 25.7 U·L^−1
[2]; 120 μM compound
  AST: 12.6 ± 2.8 ^c U·L^−1
  LDH: 224.9 ± 25.2 ^c U·L^−1
[2]
  hepatoprotective activity (result in words): notably lowered AST; also recorded: significant hepatoprotective activities

## CC12CC(OC1=O)C1(C)CCC3(C)C(=CC(=O)C4C5(C)CCC(OC6OC(C(=O)O)C(O)C(O)C6OC6OC(C(=O)O)C(O)C(O)C6O)C(C)(C)C5CCC43C)C1C2 (stereo not drawn) [Compound 5, licorice-saponin E2]
[1]
  IC50: > 50 µM
[2]
  hepatoprotective activity (result in words): significantly weaker hepatoprotective activities than the compound 2 and 11

## CC(=O)OC1CC(C)(C(=O)O)CC2C3=CC(=O)C4C5(C)CCC(OC6OC(C(=O)O)C(O)C(O)C6OC6OC(C(=O)O)C(O)C(O)C6O)C(C)(C)C5CCC4(C)C3(C)CCC12C (stereo not drawn) [Compound 6, 22β-acetoxyglycyrrhizin]
[1]
  IC50: 27.1 ± 0.9 µM
[2]; 30 μM compound
  AST: 16.5 ± 2.2 U·L^−1
  LDH: 242.8 ± 15.2 U·L^−1
[2]; 60 μM compound
  AST: 14.6 ± 3.0 U·L^−1
  LDH: 228.7 ± 14.0 ^c U·L^−1
[2]; 120 μM compound
  AST: 13.2 ± 2.7 ^c U·L^−1
  LDH: 221.7 ± 19.5 ^d U·L^−1
[2]
  hepatoprotective activity (result in words): notably lowered AST; also recorded: significant hepatoprotective activities

## CC1(C)C(OC2OC(C(=O)O)C(O)C(O)C2OC2OC(C(=O)O)C(O)C(O)C2O)CCC2(C)C1CCC1(C)C2C(=O)C=C2C3CC4(C(=O)O)CC(OC4=O)C3(C)CCC21C (stereo not drawn) [Compound 7, uralsaponin D]
[1]
  IC50: 32.2 ± 0.5 µM
[2]
  hepatoprotective activity (result in words): significantly weaker hepatoprotective activities than the compound 2 and 11

## CC12CC(OC1=O)C1(C)CCC3(C)C(=CC(=O)C4C5(C)CCC(OC6OC(C(=O)O)C(O)C(O)C6OC6OC(C(=O)O)C(O)C(O)C6O)C(C)(CO)C5CCC43C)C1C2 (stereo not drawn) [Compound 8, 24-hydroxylicorice-saponin E2]
[1]
  IC50: > 50 µM

## CC(=O)OC1CC(C)(C=O)CC2C3=CC(=O)C4C5(C)CCC(OC6OC(C(=O)O)C(O)C(O)C6OC6OC(C(=O)O)C(O)C(O)C6O)C(C)(C)C5CCC4(C)C3(C)CCC12C (stereo not drawn) [Compound 9, 22β-acetoxyglycyrrhaldehyde]
[1]
  IC50: > 50 µM

## CC1(C(=O)OC2OC(CO)C(O)C(O)C2O)CCC2(C)CCC3(C)C(=CC(=O)C4C5(C)CCC(OC6OC(C(=O)O)C(O)C(O)C6OC6OC(C(=O)O)C(O)C(O)C6O)C(C)(CO)C5CCC43C)C2C1 (stereo not drawn) [Compound 10, licorice-saponin A3]
[1]
  IC50: > 50 µM

## CC1(C)[C@@H](O[C@H]2O[C@H](C(=O)O)[C@@H](O)[C@H](O)[C@H]2O[C@@H]2O[C@H](C(=O)O)[C@@H](O)[C@H](O)[C@H]2O)CC[C@]2(C)[C@H]3C(=O)C=C4[C@@H]5C[C@@](C)(C(=O)O)CC[C@]5(C)CC[C@@]4(C)[C@]3(C)CC[C@@H]12 [Compound 11, glycyrrhizin]
[1]
  IC50: 9.3 ± 0.8 µM
[2]; 30 μM compound
  AST: 14.1 ± 2.1 ^c U·L^−1
  LDH: 236.3 ± 9.4 ^c U·L^−1
[2]; 60 μM compound
  AST: 13.0 ± 2.2 ^c U·L^−1
  LDH: 219.1 ± 19.3 ^d U·L^−1
[2]; 120 μM compound
  AST: 11.6 ± 1.8 ^d U·L^−1
  LDH: 207.8 ± 21.9 ^d U·L^−1
[2]
  hepatoprotective activity (result in words): notably lowered AST; also recorded: stronger activity than 1; also recorded: significant hepatoprotective activities

## O=C(O)CN(CCN(CC(=O)O)CC(=O)O)CCN(CC(=O)O)CC(=O)O [Diethylenetriaminepentaacetic acid, reference compound]
[1]
  IC50: 1.8 ± 0.1 µM

## CNCC(O)C(O)C(O)C(O)CO.COc1cc(C2Oc3cc(C4Oc5cc(O)cc(O)c5C(=O)C4O)ccc3OC2CO)ccc1O (stereo not drawn) [Silibinin Meglumine, reference compound]
[2]; 50 μM (positive drug)
  AST: 10.3 ± 2.2 ^d U·L^−1
  LDH: 219.1 ± 10.9 ^d U·L^−1

Source: paper PMC6272637, “Hepatoprotective Triterpene Saponins from the Roots of Glycyrrhiza inflata” (Molecules, 2015)
